Experimental data taken from patent US7078059B2, “Treatment of bone diseases” (Shire Holdings AG, priority 2000, dated 2006).
“Also recorded” adds a separate entry of the source.

Tests used:
[1] = tested on: iliac crest of growing immature dogs
Description: The specimens taken from the iliac crest of growing immature dogs were analysed. The group was divided into a control and treatment group. The treatment group received 1000 mg/Kg/day of lanthanum carbonate administered orally twice daily. The groups were run for 13 weeks, after which time samples of bone were taken vertically through the iliac crest, embedded in methyl methacrylate based resin, sectioned and stained with toluidine blue and Von Kossa stain.

mature osteoblasts = experiment: In vitro bone formation assay (calcium deposition into bone nodules); format: cell-based, mouse; conditions: for Bone formation: significance of activation/inhibition vs baseline; for Effect on bone formation activity of mature osteoblasts, in words: LA number = ng/ml lanthanum, lanthanum (III) / lanthanum (III) ion = all concentrations tested, 100 to 15,000 ng/ml, 17-estradiol 10^−10M
Description: The activity of mature osteoblasts can be determined by quantifying their ability to form mineralized bone matrix. This is done by demineralizing the formed bone matrix, and determining the amount of calcium released. Thus, this culture system fulfills requirements of an in vitro model useful for studying the bone formation activity of mature osteoblasts. […] At the end of the culture, the amount of calcium deposited during the culture period was determined, and the amount of bone formation (calcium deposition) calculated. […] Extracts of 50 μl were complexed with 1 ml determined o-cresol-phthalein-complexon. The colorimetric reaction was determined at 570 nm in a spectrophotometer. Absolute calcium concentrations were determined by comparison with a calibrated standard provided by the vendor. In this study, the effect of lanthanum carbonate on bone formation was tested. […] The amount of bone formation was determined by measuring the amount of calcium deposited into bone nodules formed by mature osteoblasts. The results are shown as the amount of calcium released (mmol/L) from the bone nodules after HCl extraction. The baseline values are too low to show the results using relative amounts as was done in the other assays.

[2] = tested on: limb bud mesodermal cells; conditions: organoid cultures; cited from earlier work
osteoclasts = conditions: extracellular application; cited from earlier work
[3] = tested on: mouse bone marrow derived osteoprogenitor cells; experiment: In vitro osteoblast differentiation assay (cellular alkaline phosphatase); format: cell-based; conditions: for Osteoblast differentiation: significance of activation/inhibition vs baseline
From the text: We have established a culture model in which mouse bone marrow derived osteoprogenitor cells first proliferate and then differentiate to osteoblasts capable of forming mineralized bone nodules (Qu et al. 1998, Qu et al. 1999). We confirmed this by following the expression of several markers of the osteoblastic phenotype and by studying the morphology of cultures at light and electron microscopic level. […] Thus, this culture system fulfills requirements of an in vitro model useful for studying differentiation of osteoprogenitor cells into bone synthesizing osteoblasts. […] Animals were killed by cervical dislocation. Both femora were removed and the soft tissues were detached aseptically. Metaphyses from both ends were cut off and bone marrow cells were collected by flushing the diaphysis with culture medium: phenol red-free-α-modified essential medium (α-MEM (Gibco BRL, Paisley, UK)). […] The cells were cultured for 6 days and half of the media […] days. […] Cells were washed with warm PBS and adherent cells were detached using trypsin-EDTA. […] The test substances were added at the beginning of the secondary culture without estrogen, and every time when the medium was changed. The number of osteoblasts formed was determined by measuring cellular alkaline phosphatase (ALP) activity in the culture. […] Louis, Mo., USA), and overnight freezing. ALP activity was determined colorimetrically using p-nitrophenylphosphate as substrate at pH 9.7 and determining the optical density at 405 nm. In parallel, protein contents of the wells were determined by the BIO-RAD protein assay, and the specific ALP activity is expressed as units/mg protein. […] Osteoblast differentiation was determined by measuring cellular alkaline phosphatase (ALP) activities and total protein amounts from cell lysates. The ALP activities were divided with the corresponding protein amounts to obtain specific activities of ALP. The results are shown as relative specific activities obtained by dividing each individual value with the mean value of the baseline group.

For O.O.O.O.O=C([O-])[O-].O=C([O-])[O-].O=C([O-])[O-].[La+3].[La+3] [LA, lanthanum carbonate tetrahydrate], the “Bone formation in growing dogs” value ([1]; dose of 2,000 mg/kg/day lanthanum) was “enhanced bone formation”, the “Bone volume and density compared to control animals” value ([1]; growing dogs, dose of 2,000 mg/kg/day lanthanum) was “significant increase” and the “Other bone parameters investigated, treated vs control group” value ([1]; growing immature dogs, 1000 mg/Kg/day of lanthanum carbonate orally twice daily, 13 weeks, iliac crest) was “no statistically significant difference”. The Bone formation (mature osteoblasts; Dose 100 ng/ml) was “++ (two characters (++ or −−) a p-value between 0.01 and 0.001)”, the Bone formation (mature osteoblasts; Dose 500 ng/ml) was “+++ (three characters (+++ or −−−) a p-value <0.001)” and the Bone formation (mature osteoblasts; Dose 1000 ng/ml) was “+++ (three characters (+++ or −−−) a p-value <0.001)”. For the same compound, the Bone formation (mature osteoblasts; Dose 5000 ng/ml) was “+++ (three characters (+++ or −−−) a p-value <0.001)”, the Bone formation (mature osteoblasts; Dose 15000 ng/ml) was “+++ (three characters (+++ or −−−) a p-value <0.001)” and the “Effect on bone formation activity of mature osteoblasts, in words” value (mature osteoblasts; listed as lanthanum (III)) was “Enhanced bone formation”. For the same compound, the “Effect on bone formation activity of mature osteoblasts, in words” value (mature osteoblasts; listed as lanthanum (III) ion) was “highly significant activation; also recorded: powerful stimulator of the bone formation activity of mature osteoblasts”, the Calcium accumulation [2] was “reduced calcium accumulation” and the Endochondral mineralization [2] was “inhibited endochondral mineralization”. The “Cytosolic calcium in osteoclasts” value (osteoclasts) was “concentration-dependant elevation of cytosolic calcium”, the “Effect on osteoblast differentiation, in words” value ([3]; 100 ng/ml lanthanum) was “stimulate osteoblast differentiation” and the Osteoblast differentiation ([3]; Dose 100 ng/ml) was “+ (One character (+ or −) means a p-value between 0.05 and 0.01)”. For the same compound, the Osteoblast differentiation ([3]; Dose 500 ng/ml) was 0, the Osteoblast differentiation ([3]; Dose 1000 ng/ml) was 0 and the Osteoblast differentiation ([3]; Dose 5000 ng/ml) was “− − −”. The Osteoblast differentiation ([3]; Dose 15000 ng/ml) was “− − −” and the “Effect on osteoblast differentiation, in words” value ([3]; LA number = ng/ml lanthanum, lanthanum (III) ion = 100-15000 ng/ml, 17-estradiol 10^−10 M) was “clear dose-dependent response”.
